Data reported in patent publication US7078385B2, “Methods of inhibiting angiogenesis with fragments and homologs of troponin subunit I” (Boston Life Sciences, Inc., priority 1996, dated 2006).
No end group written: not given here.

Assays:
[1] = system: bFGF-stimulated capillary EC; assay: Inhibition of bFGF-stimulated capillary EC proliferation by fragments of troponin I (Example 13, Table 2); type: cell-based, bovine; conditions: for IC50: read-out: Approx. IC50
Experimental: On day one, 5,000 bovine capillary endothelial cells in DMEM/10% CS/1% GPS are plated onto each well of a 96-well pregelatinized tissue culture plate. On day two, the cell media is changed to DMEM, 2% CS, 1% GPS, 0.5% BSA (complete medium), supplemented with 10 μl of 1 mg/ml “cold” thymidine per 50 ml of medium. On day three, test samples in complete medium are added in duplicate. Additionally, […] (bFGF) is added to each well except for the appropriate controls, to a final concentration of 0.2 ng/well. On day four, 5 μl of 1:13 diluted ^3H-Thymidine stock is added to each well and the plate is incubated for 5–6 hours. Following incubation, the medium is aspirated, and the remainder is rinsed once with PBS, then twice for 5 minutes each with methanol followed by two rinses each for 10 minutes with 5% TCA. The cells are then rinsed with water three times, dried to the plate, and 100 μl of 0.3 N NaOH is added to each well. The contents of the well are then transferred to the scintillation counter vials and 3 mls of Ecolume added to each vial. Samples are then counted on the scintillation counter.
Recombinant peptides corresponding to fragments of rabbit (rb) TnI (SEQ ID NO:10) (FIG. 12) were tested for ability to inhibit bFGF-stimulated capillary EC as described above in Section 6, Examples 2 and 8. The rbTnI fragments (SEQ ID NOS:11–15) were prepared according to Jha et al., 1996, Biochemistry 35(34):11026–11035.

[2] = system: embryonic neovascularization of the chick chorioallantoic membrane; conditions: cited from earlier work; for Lowest reported dose effective as combination in the CAM assay: combined with hydrocortisone (60 μg)
[3] = system: bovine capillary endothelial cells (BCE), bFGF-stimulated; assay: bFGF-stimulated capillary endothelial cell proliferation, colorimetric acid phosphatase assay (Example 3); type: cell-based
Experimental: A quick and sensitive screen for inhibition of EC proliferation in response to treatment with a troponin subunit, homolog, or derivative of the invention involves incubating the cells in the presence of varying concentrations of the inhibitor and determining the number of endothelial cells in culture based on the colorimetric determination of cellular acid phosphatase activity, described by Connolly, et al., 1986, J. Anal. Biochem. 152:136–140.
The effect of troponin on the proliferation of capillary endothelial cells (EC) was measured in an assay which measures the ability of this protein to interfere with stimulation of endothelial cell proliferation by a known angiogenesis factor (bFGF).
Capillary endothelial cells and Balb/c 3T3 cells were separately plated (2×10^3/0.2 ml) onto gelatin-coated 96-well tissue culture dishes on day 1. On day 2, cells were refed with Dulbecco's modified Eagle's medium (Gibco) with 5% calf serum (Hyclone) (DMEM/5) and bFGF (10 ng/ml) (FGF Co.) and increasing concentrations of one or more troponin subunits. […] Wells containing phosphate buffered saline (PBS) (Gibco) alone and PBS+bFGF were included as controls. On day 5, media was removed and cells were washed with PBS and lysed in 100 μl of buffer containing 0.1 M sodium acetate (pH 5.5), 0.1% Triton X-100™ and 100 mM p-nitrophenyl phosphate (Sigma 104 phosphatase substrate). After incubation for 2 hours at 37° C., the reaction was stopped with the addition of 10 μl of 1 N NAOH. Color development was determined at 405 nm using a rapid microplate reader (Bio-Tek).
Percent inhibition was determined by comparing the cell number of wells exposed to stimulus with those exposed to stimulus and troponin subunits.

With “122–181: recombinant rabbit TnI fragment, C′ region, aa 122–181 (LKALLGSKHKVCMDLRANLKQVKKEDTEKERDLRDVGDWRKNIEEKSGMEGRKKMFESES; listed as Oryctolagus cuniculus)” the “Approx. IC50 μg/well” value [1] was over 0.3 μg/well, the “% I (Percent Inhibition) of EC proliferation” value (“% I (Percent Inhibition)” for short) ([1]; 0.01 μg/well) was −1% and the “% I (Percent Inhibition)” value ([1]; 0.025 μg/well) was −6%. The “% I (Percent Inhibition)” value ([1]; 0.1 μg/well) was 20%, the “% I (Percent Inhibition)” value ([1]; 0.3 μg/well) was 23% and the IC50 [1] was over 0.2 µM.

In the case of B-cyclodextrin tetradecasulfate, the “Lowest reported dose effective as combination in the CAM assay” value [2] is listed as 14 µg.

For CMDLRANL [134–141], the “Approx. IC50 μg/well” value [1] was 150 μg/well.

In the case of DAMLKALL [120–127], the “Approx. IC50 μg/well” value [1] is reported as >>50 μg/well.

For DLRANLKQ [136–143], the “Approx. IC50 μg/well” value [1] was >>50 μg/well.

With DLRGKFKRPPLRRVRMSADA [102–121] the “Approx. IC50 μg/well” value [1] was >>20 μg/well.

With EDMNQKLFDLRGKFKRPPLR [94–113] the “Approx. IC50 μg/well” value [1] was >>20 μg/well.

With GSKHKVCM [128–135] the “Approx. IC50 μg/well” value [1] was 150 μg/well.

With KALLGSKH [124–131] the “Approx. IC50 μg/well” value [1] was >>50 μg/well.

In the case of KFKRPPLRRVRMSADAMLKA [102–125], the “Approx. IC50 μg/well” value [1] is reported as >>20 μg/well.

For KHKVCMDL [130–137], the “Approx. IC50 μg/well” value [1] was 50 μg/well.

With KLFDLRGKFKRPPLRRV [98–114] the “Approx. IC50 μg/well” value [1] was >>40 μg/well.

In the case of KVCMDLRA [132–139], the “Approx. IC50 μg/well” value [1] is reported as 75 μg/well.

For LLGSKHKV [126–133], the “Approx. IC50 μg/well” value [1] was >>50 μg/well.

With MLKALLGS [122–129] the “Approx. IC50 μg/well” value [1] was >>50 μg/well.

With PPLRRVRMSADAMLKALLGS [110–129] the “Approx. IC50 μg/well” value [1] was >>20 μg/well.

In the case of QKLFDLRGKFKRPPLRRVRM [98–117], the “Approx. IC50 μg/well” value [1] is reported as >>20 μg/well.

In the case of RMSADAML [116–123], the “Approx. IC50 μg/well” value [1] is reported as >>50 μg/well.

With RVRMSADAMLKALLGSKHKV [114–133] the “Approx. IC50 μg/well” value [1] was >>20 μg/well.

In the case of SADAMLKA [118–125], the “Approx. IC50 μg/well” value [1] is reported as >>50 μg/well.

In the case of SADAMLKALLGSKHKVCMDL [118–137], the “Approx. IC50 μg/well” value [1] is reported as 40 μg/well.

In the case of “Troponin C: troponin subunit C, calcium binding polypeptide of the troponin complex; human fast twitch sequence SEQ ID NO:1”, the IC50 [3] is reported as 0.278 µM, the “Percent inhibition of BCE proliferation” value ([3]; 280 nM) is reported as 54% and the “Percent inhibition of BCE proliferation” value ([3]; 1.4 μM) is reported as 86%. For the same molecule, the “Percent inhibition of BCE proliferation” value ([3]; 2.8 μM) was 83% and the “Percent inhibition of BCE proliferation” value ([3]; 5.6 μM (20 μg/well)) was 100%.

In the case of “Troponin T: troponin subunit T, tropomyosin binding polypeptide of the troponin complex; SEQ ID NO:3”, the IC50 [3] is reported as 2.14 µM, the “Percent inhibition of BCE proliferation” value ([3]; 1.6 μM) is reported as 23% and the “Percent inhibition of BCE proliferation” value ([3]; 3.3 μM) is reported as 62%. The “Inhibition of bFGF-stimulated EC proliferation (in words)” value ([3]; 1 and 5 μg/well) was “not”.

In the case of heparin, the “Lowest reported dose effective as combination in the CAM assay” value [2] is listed as 50 µg.

In the case of protamine, the “Reported dose of angiogenesis inhibitor tested alone in the CAM assay” value [2] is given as 50 µg.

B1: 96–181: recombinant rabbit TnI fragment, carboxy terminus (C′) and I′ region, aa 96–181 (protein, listed as Oryctolagus cuniculus)
chain: NQKLFDLRGKFKRPPLRRVRMSADAMLKALLGSKHKVCMDLRANLKQVKKEDTEKERDLRDVGDWRKNIEEKSGMEGRKKMFESES
In the case of B1, the “% I (Percent Inhibition)” value ([1]; 0.01 μg/well) is reported as 25%, the “% I (Percent Inhibition)” value ([1]; 0.025 μg/well) is reported as 28% and the “% I (Percent Inhibition)” value ([1]; 0.1 μg/well) is reported as 54%. The “% I (Percent Inhibition)” value ([1]; 0.3 μg/well) was 48%.

B2: 1–120: recombinant rabbit TnI fragment, N′ and inhibitory (I′) region, aa 1–120 (protein, listed as Oryctolagus cuniculus)
chain: GDEEKRNRAITARRQHLKSVMLQIAATELEKEEGRREAEKQNYLAEHCPPLSLPGSMAEVQELCKQLHAKIDAAEEEKYDMEIKVQKSSKELEDMNQKLFDLRGKFKRPPLRRVRMSADA
With B2 the “Approx. IC50 μg/well” value [1] was >>0.3 μg/well, the “% I (Percent Inhibition)” value ([1]; 0.01 μg/well) was 6% and the “% I (Percent Inhibition)” value ([1]; 0.025 μg/well) was 0%. The “% I (Percent Inhibition)” value ([1]; 0.1 μg/well) was 12%, the “% I (Percent Inhibition)” value ([1]; 0.3 μg/well) was 17% and the IC50 [1] was over 0.1 µM.

B3: platelet factor IV: previously described angiogenesis inhibitor (Taylor et al. 1982) (protein, UniProt P02776 32-101, looked up)
Platelet factor 4: EAEEDGDLQCLCVKTTSQVRPRHITSLEVIKAGPHCPTAQLIATLKNGRKICLDLQAPLYKKIIKKLLES
In the case of B3, the “Reported dose of angiogenesis inhibitor tested alone in the CAM assay” value [2] is listed as 10 µg.

B4: Troponin I: troponin subunit I, inhibitory polypeptide of the troponin complex; human fast twitch sequence SEQ ID NO:2 (protein, listed as Homo sapiens)
chain: MGDEEKRNRAITARRQHLKSVMLQIAATELEKEESRREAEKQNYLAEHCPPLHIPGSMSEVQELCKQLHAKIDAAEEEKYDMEVRVQKTSKELEDMNQKLFDLRGKFKRPPLRRVRMSADAMLKALLGSKHKVCMDLRANLKQVKKEDTEKERDLRDVGDWRKNIEEKSGMEGRKKMFESES
In the case of B4, the IC50 [3] is reported as 1.14 µM, the “Percent inhibition of BCE proliferation” value ([3]; 240 nM) is reported as 33% and the “Percent inhibition of BCE proliferation” value ([3]; 1.2 μM (5 μg/well), 1.2 µM) is reported as 46%. The “Percent inhibition of BCE proliferation” value ([3]; 1.2 μM (5 μg/well), listed as full-length TnI, 1.2 µM) was “approximately 46%” and the “Inhibition of bFGF-stimulated BCE proliferation (in words)” value ([3]; 10 μg/well) was “inhibition was not observed”.

B5: 1–94: recombinant rabbit TnI fragment, amino-terminal (N′) region, aa 1–94 (protein, listed as Oryctolagus cuniculus)
chain: GDEEKRNRAITARRQHLKSVMLQIAATELEKEEGRREAEKQNYLAEHCPPLSLPGSMAEVQELCKQLHAKIDAAEEEKYDMEIKVQKSSKELED
For B5, the “Approx. IC50 μg/well” value [1] was over 0.3 μg/well, the “% I (Percent Inhibition)” value ([1]; 0.01 μg/well) was −12% and the “% I (Percent Inhibition)” value ([1]; 0.025 μg/well) was 6%. For the same molecule, the “% I (Percent Inhibition)” value ([1]; 0.1 μg/well) was 31%, the “% I (Percent Inhibition)” value ([1]; 0.3 μg/well) was 28% and the IC50 [1] was over 0.1 µM.
